Measured values from patent US12318373B2, “Methods of treating gastrointestinal stromal tumors” (Deciphera Pharmaceuticals, LLC, priority 2019, dated 2025).

Assays:
[1] = system: patients with advanced GIST; assay: Example 2/6: safety, treatment-emergent adverse events; assay type: in vivo, human
Experimental: This study was a randomized (2:1), double-blind, placebo-controlled, international, multicenter study to evaluate the safety, tolerability, and efficacy of ripretinib compared to placebo in 129 patients with advanced GIST whose previous therapies have included at least imatinib, sunitinib, and regorafenib. Patients were randomized 2:1 to either 150 mg of ripretinib or placebo once daily. The primary efficacy endpoint is progression-free survival (PFS) as determined by independent radiologic review using modified Response Evaluation Criteria in Solid Tumors (RECIST). Secondary endpoints as determined by independent radiologic review using modified RECIST include Objective Response Rate (ORR), Time to Tumor Progression (TTP) and Overall Survival (OS).
Grade 3 or 4 treatment-emergent adverse events (TEAEs) occurred in 42 (49%) patients on the ripretinib arm compared to 19 (44%) on the placebo arm. Grade 3 or 4 TEAEs>5% of patients in the ripretinib arm were anemia (9%; n=8), abdominal pain (7%; n=6) and hypertension (7%; n=6). Grade 3 or 4 TEAEs>5% of patients in the placebo arm were anemia (14%; n=6). Table 1 lists TEAEs>15% in the ripretinib arm compared to placebo.
The safety of ripretinib and the impact of alopecia and palmar-plantar erythrodysesthesia (PPES) on patient-reported outcomes (PROs) of patients treated in the study described in Example 2 herein are described. […] When stratified by alopecia and PPES, patient reported assessments of function, overall health, and overall quality of life were maintained over time.

[2] = system: GIST; assay: Example 4: phase 1 study, efficacy by line of therapy at 150 mg QD; assay type: in vivo, human
Experimental: Efficacy and safety results from the escalation and expansion phases of a phase 1 study for patients with GIST treated at ripretinib 150 mg QD as the starting dose in 28-day cycles are presented. Local, investigator-assessed Response Evaluation Criteria in Solid Tumors (RECIST 1.1) response assessments were performed every 2 cycles, and patients in the expansion cohorts who progressed per RECIST 1.1 were allowed to dose escalate to 150 mg BID.
142 patients with GIST in the escalation and expansion phases were treated at 150 mg QD dose. Number of patients by line of therapy were as follows: 31 2nd line, 28 3rd line, and 83≥4th line patients. 135 patients (95.1%) had KIT-mutant GIST, and 7 patients (4.9%) had PDGFRA-mutant GIST.
For example, the confirmed-only complete response (CR), partial response (PR), stable disease, and progressive disease are presented in Table 4. The objective response rate data in Table 4 relates to the proportion of patients with CR+PR. The median PFS data in Table 4 refers to progression-free survival per investigator assessment, by line of therapy.

[3] = Solubility; assay type: physicochemical

With `CCn1c(=O)c(-c2cc(NC(=O)Nc3ccccc3)c(F)cc2Br)cc2cnc(NC)cc21` [ripretinib] as the compound, how does the “Alopecia in females (females vs males)” value ([1]; female, human, in vivo) read?
The value was 56.8%.

What about the “Grade 3 or 4 abdominal pain: patients, %” value ([1]; human, in vivo) of the same compound?
The value was 7%.

What about the “Grade 3 or 4 abdominal pain: patients, number” value ([1]; human, in vivo) of the same compound?
Its value is 6.

And the “Grade 3 or 4 anemia: patients, number” value ([1]; human, in vivo)?
The value was 8.

And the “Grade 3 or 4 hypertension: patients, %” value ([1]; human, in vivo)?
Its value is 7%.

What about the “Grade 3 or 4 hypertension: patients, number” value ([1]; human, in vivo) of the same compound?
The value was 6.

What about the “Patients with a TEAE leading to dose interruption” value ([1]; human, in vivo) of the same compound?
The value was 23.5%.

And the “Patients with a TEAE leading to dose reduction” value ([1]; human, in vivo)?
The value was 7.1%.

What about the “Grade 3/4 alopecia” value ([1]; in vivo) of the same compound?
The value was “no patients”.

And the “Grade 3 PPES” value ([1]; in vivo)?
The value was “no patients”.

What about the “Overall safety and tolerability profile” value ([1]; in vivo) of the same compound?
The value was “favorable overall safety and tolerability profile”.

And the “Serious adverse events of alopecia or PPES” value ([1]; in vivo)?
Its value is “no serious adverse events”.

And the “TEAEs during the crossover period” value ([1]; in vivo)?
Its value is “no safety concerns”.

What about the “Alopecia in males (females vs males)” value ([1]; male, human, in vivo) of the same compound?
The value was 43.2%.

And the “Patients with a TEAE leading to death” value ([1]; ripretinib arm)?
The value was 5.9%.

What about the “Duration of response, Median” value ([2]; 150 mg QD, 2nd Line) of the same compound?
Its value is 80 weeks.

And the “Best response (confirmed only): PR, %” value ([2]; 150 mg QD, 2nd Line (n = 31))?
Its value is “(19.4) %”.

What about the “Best response (confirmed only): Progressive disease, %” value ([2]; 150 mg QD, 2nd Line (n = 31)) of the same compound?
The value was “(12.9) %”.

What about the “Best response (confirmed only): Stable disease, %” value (“Best response … Stable disease, %” for short) ([2]; 150 mg QD, 2nd Line (n = 31)) of the same compound?
The value was “(67.7) %”.

What about the “PFS, Median” value ([2]; 150 mg QD, 2nd Line (n = 31), investigator assessment) of the same compound?
Its value is 46.4 weeks.

And the “Duration of response: Number of events” value ([2]; 150 mg QD, 2nd Line, n = 6 responders)?
Its value is 3.

What about the “Best response (confirmed only): PR, %” value ([2]; 150 mg QD, 3rd Line (n = 28)) of the same compound?
The value was “(14.3) %”.

And the “Best response (confirmed only): Progressive disease, %” value ([2]; 150 mg QD, 3rd Line (n = 28))?
Its value is “(21.4) %”.

What about the “Best response … Stable disease, %” value ([2]; 150 mg QD, 3rd Line (n = 28)) of the same compound?
The value was “(64.3) %”.

What about the “PFS, Median” value ([2]; 150 mg QD, 3rd Line (n = 28), investigator assessment) of the same compound?
The value was 36.3 weeks.

What about the “Duration of response: Number of events” value ([2]; 150 mg QD, 3rd Line, n = 4 responders) of the same compound?
The value was 1.

And the “Duration of response, Median” value ([2]; 150 mg QD, ≥4th Line)?
The value was 76.1 weeks.

What about the “Best response (confirmed only): No response assessment, %” value ([2]; 150 mg QD, ≥4th Line (n = 83)) of the same compound?
Its value is “(6.0) %”.

What about the “Best response (confirmed only): Not evaluable, %” value ([2]; 150 mg QD, ≥4th Line (n = 83)) of the same compound?
The value was “(1.2) %”.

And the “Best response (confirmed only): PR, %” value ([2]; 150 mg QD, ≥4th Line (n = 83))?
The value was “(7.2) %”.

What about the “Best response (confirmed only): Progressive disease, %” value ([2]; 150 mg QD, ≥4th Line (n = 83)) of the same compound?
Its value is “(26.5) %”.

And the “Best response … Stable disease, %” value ([2]; 150 mg QD, ≥4th Line (n = 83))?
The value was “(59.0) %”.

What about the “PFS, Median” value ([2]; 150 mg QD, ≥4th Line (n = 83), investigator assessment) of the same compound?
The value was 23.9 weeks.

And the “Duration of response: Number of events” value ([2]; 150 mg QD, ≥4th Line, n = 6 responders)?
The value was 3.

And the “PFS of second and third-line patients with Exons 9, 11, 13, or 17 KIT mutations” value ([2]; FIG. 27)?
The value was “comparable PFS”.

What about the “Clinical benefit after dose escalation to 150 mg BID (PFS1 vs PFS2)” value ([2]; regardless of line of therapy, investigator assessment, FIGS. 25A, 25B) of the same compound?
The value was “additional clinical benefit”.

What about the Solubility [3] of the same compound?
The Solubility was “pH-dependent solubility”.
